The text below walks through data of patent US11078259B2, “Methods and compositions for promoting thermogenic potential” (Joslin Diabetes Center, Inc., priority 2015, dated 2021).

This experiment relates to UCP1 and DIO2 expression in differentiated hBA. Description: Q-RT-PCR for UCP1 and DIO2 in differentiated hBA treated with norepinephrine or browning agents. Type of experiment: cell-based, human. To be noted: hBAs from subject 2; 1 uM norepinephrine (NE) for 4 h. The procedure:
FIG. 4A depicts total cellular respiration rate (OCR) measured using the Seahorse extracellular flux analyzer in differentiated hWA and hBA from Sub1 and Sub2 that were treated for 4 h with 10 uM forskolin (Fsk). The same number of cells was used in the assay. Data are presented as mean±s.e.m. (n=10; two-tailed Student's t-test; *P<0.05, **P<0.01, ***P<0.001). A representative experiment from a total of three independent studies is shown. FIG. 4B depicts Q-RT-PCR analysis for UCP1 and DIO2 expression in differentiated hWA and hBA from Sub1 and Sub2 that were treated for 48 h with 3.3 nM BMP7, 3.3 nM BMP8 and 50 nM FGF21. Data are presented as a fold change compared to vehicle treatment of hWA in each subject (mean±s.e.m., n=3; two-tailed Student's t-test; *P<0.05, **P<0.01, ***P<0.001). A representative experiment from a total of three independent studies is shown. […]
RNA extraction, cDNA synthesis, and quantitative real-time PCR (Q-RT-PCR) were performed as described before (Cypess, A. M., et al. Nat Med 19, 635-639, 2013; Tseng, Y. H., et al. Nature 454, 1000-1004, 2008). Q-RT-PCR assays were run in duplicates and quantified in the ABI Prism 7900 sequence-detection system using SYBR (Roche Applied Science, Indianapolis, Ind.). Relative mRNA expression was determined by the delta-Ct method and the values were normalized to the expression of 18S ribosomal RNA (18s).

Each structure is given as a SMILES string.

Turning to `NC[C@H](O)c1ccc(O)c(O)c1` [norepinephrine], the “levels of UCP1 and DIO2” value was “increasing the levels of UCP1 and DIO2”.
